# According to patent publication US20130344095A1, “METHOD OF USING CD1D OVER-EXPRESSION IN HUMAN DENDRITIC CELLS TO ENHANCE CD8+ T CELL-BASED AND INVARIANT NATURAL KILLER T CELL-BASED ANTITUMOR IMMUNITY” (priority 2011, published 2013):
# Assays:
# [1] = test system: MART-1 peptide-specific CD8+ T cells; experiment: Priming of MART-1 peptide-specific CD8+ T cells by H1.DCs (pentamer staining); type: cell-based, human; conditions: for T cell priming ability of CD1d-overexpressing H1.DCs: DCs treated 24 hours with 20 μM PPMP or 150 μM NB-DGJ one day after transduction
# Protocol: (§1) The DCs were first transduced by BV-CMV.CD1d-WPRE and pulsed with or without 100 ng/ml α-GC for 24 h one day after transduction. Two days after transduction, the DCs were pulsed with 10 μg/ml MART-1 peptide for 4 h. After washing, 10^5 DCs were co-cultured with 10^6 HLA A2+ PBLs in complete RPMI 1640. After co-culture of 9 days, to detect antigen-specific CTLs, the samples were stained with APC mouse anti-human CD3, FITC-labeled anti-CD8 (ProImmune) and R-PE-labeled A*0201/[…] Pentamer (ProImmune) and analyzed by FACSAria flow cytometer. In some experiments, the CD1d-overexpressing human DCs were pretreated with anti-CD1d blocking antibody (eBioscience, San Diego, Calif.) or its isotype control (eBiosciecne) before applying for T cell priming. To study the effect of glycolipid biosynthesis inhibition on T cell priming, the BVCD1d-transduced human DCs were treated with 20 μM DL-threo-1-Phenyl-2-palmitoylamino-3-morpholino-1-propanol (PPMP; Sigma-Aldrich) or 150 μM N-(n-Butyl)deoxygalactonojirimycin (NB-DGJ; Merck KGaA, Darmstadt, Germany) for 24 hours one day after transduction. In other experiments, the cocultures were restimulated with 10^5 MART-1 peptide-pulsed DCs on day 9 of coculture and analyzed one week after restimulation. To measure antigen-specific CTL activity, the cocultures were stimulated for the third time on day 7 after second stimulation with 10^5 MART-1 peptide-pulsed DCs and used as effectors for lysis of tumor cells one week later.
# [2] = test system: MART-1 peptide-specific CD8+ T cells; experiment: Priming of MART-1 peptide-specific CD8+ T cells by moDCs (pentamer staining); type: cell-based, human; conditions: DCs treated 24 hours with 20 μM PPMP or 150 μM NB-DGJ one day after transduction
# Protocol: as §1, with “To measure antigen-specific CTL activity, the cocultures were stimulated for the third time on day 7 after second stimulation with 10^5 MART-1 peptide-pulsed DCs and used as effectors for lysis of tumor cells one week later.” left out
SMILES,T cell priming ability of CD1d-overexpressing H1.DCs [1],T cell priming ability of CD1d-overexpressing moDCs [2],priming ability of CD1d-overexpressing H1.DCs with α-GC loading ([1]; compared with those without α-GC loading (p<0.04)),"effect of α-GC loading on priming of antigen-specific CD8+ T cells ([1]; mock-transduced, BV-PacPAK6-transduced and CD1d-overexpressing H1.DCs, 100 ng/ml α-GC)"
"CCCCCCCCCCCCCCCC(=O)N[C@H](CN1CCOCC1)[C@H](O)c1ccccc1 (racemic) [PPMP, DL-threo-1-Phenyl-2-palmitoylamino-3-morpholino-1-propanol]",inhibited,inhibited,,
"CCCCN1C[C@H](O)[C@@H](O)[C@@H](O)[C@H]1CO [NB-DGJ, N-(n-Butyl)deoxygalactonojirimycin]",inhibited,inhibited,,
"CCCCCCCCCCCCCCCCCCCCCCCCCC(=O)N[C@@H](CO[C@H]1O[C@H](CO)[C@H](O)[C@H](O)[C@H]1O)[C@H](O)[C@H](O)CCCCCCCCCCCCCC [α-GC, α-galactosylceramide]",,,significantly decreased,no obvious beneficial effect
